Measurements: patent US7951834B2, “Angiotensin I-converting enzyme (ACE) inhibitors” (University of Cape Town, priority 2005, dated 2011)

How the values were obtained:
[1] = biological target: tACEdelta36NJ (tACE, C domain) (Homo sapiens, UniProt P12821); assay: ACE inhibitory activity, fluorometric determination of phthaldialdehyde-derivatised His-Leu, tACE; assay type: biochemical; details: for inhibitory activity for ACE as compared to lisinopril: in words; for Ki: substrate ZPHL, enzyme + inhibitor incubated 3 hours at ambient temperature
Experimental: (§1) The ACE inhibitory activity (as tabulated in Table 1) was measured by the fluorometric determination of phthaldialdehyde-derivatised histidylleucine, a product of the enzyme reaction according to the method of Almquist et al.,^12 with some modifications. For tACEdelta36NJ and N-domain inhibition using Z-Phe-His-Leu as substrate:—10 μL of 0.05 mg/mL enzyme+120 μL inhibitor was incubated at ambient temperature for 3 hours. Inhibitor concentrations ranged from 2.0 μM to 500 μM. A 3.0 μL aliquot of this was assayed for enzyme activity using 30 μL of 1.0 mM […]. This was incubated (in triplicate) for 30 mins at 37° C. and stopped with 180 μL solution of 0.28N NaOH. To this alkalized mixture 12 μL of o-phthaldialdehyde (150 mM) was added and the mixture incubated for another 10 mins at room temperature. Reactions were stopped by adding 26 μL of 3N HCl. Fluorescence was measured at Ex=360 nm; Em=486 nm, 5×5 slit width along with a His-Leu standard calibration curve fluorometer: Varian Cary Eclipse plate reader.
(§2) All assays included enzyme incubated with buffer in the absence of inhibitor (i.e. 0 μM inhibitor concentration).

[2] = biological target: ACE N-domain (Homo sapiens, UniProt P12821); assay: ACE inhibitory activity, fluorometric determination of phthaldialdehyde-derivatised His-Leu, N-domain; assay type: biochemical; details: substrate ZPHL; enzyme + inhibitor incubated 3 hours at ambient temperature; read-out: Ki (N-dom) ZPHL
Experimental: as §1, §2

Chain of ACE N-domain (P12821 40-624 limits assumed): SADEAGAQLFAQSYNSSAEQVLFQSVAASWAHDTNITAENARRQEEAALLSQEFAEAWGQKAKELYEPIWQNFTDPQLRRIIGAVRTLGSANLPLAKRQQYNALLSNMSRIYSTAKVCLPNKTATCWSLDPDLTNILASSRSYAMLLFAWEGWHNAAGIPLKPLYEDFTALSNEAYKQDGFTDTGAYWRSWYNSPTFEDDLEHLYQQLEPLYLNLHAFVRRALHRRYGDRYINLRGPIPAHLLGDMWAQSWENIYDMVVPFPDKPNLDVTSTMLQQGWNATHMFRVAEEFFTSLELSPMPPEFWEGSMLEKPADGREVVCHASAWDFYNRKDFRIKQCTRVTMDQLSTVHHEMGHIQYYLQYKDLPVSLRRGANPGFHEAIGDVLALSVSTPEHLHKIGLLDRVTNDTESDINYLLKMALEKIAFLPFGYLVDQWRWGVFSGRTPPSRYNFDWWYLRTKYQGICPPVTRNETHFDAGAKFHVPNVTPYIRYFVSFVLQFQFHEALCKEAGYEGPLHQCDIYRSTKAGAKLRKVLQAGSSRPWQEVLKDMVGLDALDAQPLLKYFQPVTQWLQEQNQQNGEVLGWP
Chain of tACEdelta36NJ (tACE, C domain) (P12821 642-1230 limits assumed): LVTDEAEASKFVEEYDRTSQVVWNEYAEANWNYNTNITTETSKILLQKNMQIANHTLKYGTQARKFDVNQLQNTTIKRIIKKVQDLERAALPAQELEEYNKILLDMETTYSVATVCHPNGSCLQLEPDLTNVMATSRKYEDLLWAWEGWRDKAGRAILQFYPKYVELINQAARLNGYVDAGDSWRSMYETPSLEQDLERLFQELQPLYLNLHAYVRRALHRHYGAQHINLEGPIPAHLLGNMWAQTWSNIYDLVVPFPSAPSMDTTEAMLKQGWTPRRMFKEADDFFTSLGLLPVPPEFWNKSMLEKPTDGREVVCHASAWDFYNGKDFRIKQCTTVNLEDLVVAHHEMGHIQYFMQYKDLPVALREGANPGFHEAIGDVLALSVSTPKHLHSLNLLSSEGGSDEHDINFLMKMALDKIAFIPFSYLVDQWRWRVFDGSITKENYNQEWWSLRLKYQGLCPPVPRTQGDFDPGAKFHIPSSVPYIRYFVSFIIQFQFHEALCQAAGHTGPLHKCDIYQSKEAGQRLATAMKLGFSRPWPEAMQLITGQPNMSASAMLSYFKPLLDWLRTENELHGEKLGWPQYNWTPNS

Row | inhibitory activity for ACE as compared to lisinopril [1] | melting point [°C] | Ki [2] [µM] | Ki [1] [µM] | C-domain specific (fold) ([1]; tACE (C domain) versus N-domain) | Compound | domain selectivity (in words) ([1]; N-domain versus tACE (C domain))
1 | weak inhibitory activity | 171 to 173 | 196 | 0.8 | 245 | O=C(CCC(=O)[C@H](Cc1ccccc1)NC(=O)c1ccccc1)N[C@@H](Cc1c[nH]c2ccccc12)C(=O)O [Compound 5b, (5S)-5-[(N-benzoyl)amino]-4-oxo-6-phenyl-hexanoyl-L-tryptophan] | 
2 | weak inhibitory activity |  | 84.3 | 23.7 |  | O=C(CCC(=O)[C@H](Cc1ccccc1)NC(=O)c1ccccc1)N[C@@H](Cc1ccccc1)C(=O)O [Compound 5c, (5S)-5-[(N-benzoyl)amino]-4-oxo-6-phenyl-hexanoyl-L-phenylalanine] | 
3 | weak inhibitory activity |  | 33.6 | 144 |  | CC(C)(C)OC(=O)N[C@@H](Cc1ccccc1)C(=O)CCC(=O)N1CCC[C@H]1C(=O)O [Compound 11a, (5S)-6-phenyl-5-[(tert-butyloxycarbonyl)-amino]-4-oxo-hexanoyl-L-proline] | inhibits N-domain more effectively than tACE
4 |  | 141 to 143 |  |  |  | CC(C)(C)OC(=O)N[C@@H](Cc1ccccc1)C(=O)CCC(=O)N[C@@H](Cc1c[nH]c2ccccc12)C(=O)O [Compound 11b, (5S)-6-phenyl-5-[(tert-butyloxycarbonyl)-amino]-4-oxo-hexanoyl-L-tryptophan] | 

Row | Compound | inhibitory activity for ACE as compared to lisinopril [1] | melting point [°C] | Ki [2] [µM] | Ki [1] [µM] | C-domain specific (fold) ([1]; tACE (C domain) versus N-domain) | domain selectivity (in words) ([1]; N-domain versus tACE (C domain))
5 | O=C(N[C@@H](Cc1ccccc1)C(=O)CCC(=O)N1CCC[C@H]1C(=O)O)c1ccccc1 [Compound 5a, (5S)-5-[(N-benzoyl)amino]-4-oxo-6-phenyl-hexanoyl-L-proline] | weak inhibitory activity |  |  |  |  | 
